In paper PMC8745345, “Hydroxy Pentacyclic Triterpene Acid, Kaempferol, Inhibits the Human 5-Hydroxytryptamine Type 3A Receptor Activity” (International Journal of Molecular Sciences, 2022):
Changes are numbered by the printed parent chain.

Key:
Format in all cases: cell-based
[1] = target: T1, human 5-HT3A receptor W63A mutant (Homo sapiens, UniProt P46098, W85A); assay: Two-electrode voltage clamp, I5-HT inhibition, W63A mutant; settings: −80 mV
T1 sequence (P46098 24-478 W85A): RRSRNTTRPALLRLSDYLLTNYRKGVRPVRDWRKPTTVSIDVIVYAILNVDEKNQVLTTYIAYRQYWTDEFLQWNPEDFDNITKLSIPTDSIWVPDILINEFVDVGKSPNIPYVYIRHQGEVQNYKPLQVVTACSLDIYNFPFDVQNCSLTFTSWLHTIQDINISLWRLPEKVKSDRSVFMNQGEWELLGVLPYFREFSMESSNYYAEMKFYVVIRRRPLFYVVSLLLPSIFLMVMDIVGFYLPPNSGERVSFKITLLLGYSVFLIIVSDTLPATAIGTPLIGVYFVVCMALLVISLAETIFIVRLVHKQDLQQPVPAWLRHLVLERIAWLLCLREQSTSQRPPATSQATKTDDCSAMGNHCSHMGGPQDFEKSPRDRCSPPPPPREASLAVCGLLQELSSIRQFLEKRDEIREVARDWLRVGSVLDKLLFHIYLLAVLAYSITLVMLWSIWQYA
Method: (§1) Xenopus oocytes were used in this study as cells for expression of human 5-HT3A receptor. All female frogs used in this experiment were obtained from the Korean Xenopus Resource Center for Research (KXRCR000001). […] Xenopus oocytes were extracted during ice incubation state and isolated as single oocytes using collagenase II (2 mg/mL) in OR2 buffer (82.5 mM NaCl, 2 mM KCl, 1 mM MgCl2, 5 mM HEPES, pH 7.4). Isolated oocytes were incubated with ND96 incubation buffer (96 mM NaCl, 2 mM KCl, 1 mM MgCl2, 1.8 mM CaCl2, 5 mM HEPES, 2.5 mM sodium pyruvate, and 50 mg/mL gentamycin, pH 7.4) at 18 °C until the experiment was performed. Human 5-HT3A receptor mRNA was injected into oocytes using a nanoinjector (Drummond Scientific, Broomall, PA, USA) with a mineral-filled 10 μL microdispenser (VWR, Piscataway, NJ, USA).
(§2) To confirm the KAE activity on the human 5-HT3A receptor, a two-electrode voltage clamp (OC-725C; Warner Instruments, Hamden, CT, USA) with a Digitata 1550A was used. For the experiment, induced-inward current was converted to digital data with pClamp 10 software (Axon Instruments, Union City, CA, USA). All experiments were performed at room temperature using an oocyte clamp equipped with Digidata. The membrane holding potential was −80 mV.

[2] = target: T2, human 5-HT3A receptor I144A mutant (Homo sapiens, UniProt P46098); assay: Two-electrode voltage clamp, I5-HT inhibition, I144A mutant; settings: −80 mV
T2 sequence (P46098 24-478): T1 sequence (P46098 24-478 W85A) with A62W
Method: Human 5-HT3A receptor cDNA was linearized using restriction enzyme XhoI. In vitro transcription was performed using an mMESSAGE mMACHINE T7 Transcription Kit (Thermo Fisher Scientific, Waltham, MA, USA). The final mRNA product was dissolved in 1X Diethyl Pyrocarbonate (RNase-free water) at a final concentration of 1 μg/μL and kept in a deep-freezer at −80 °C until used.
Xenopus oocytes were used in this study as cells for expression of human 5-HT3A receptor. All female frogs used in this experiment were obtained from the Korean Xenopus Resource Center for Research (KXRCR000001). Xenopus management followed the guideline of Chonnam National University institution guidelines (CNU IACUC-YB-2016-07, July 2016). Xenopus oocytes were extracted during ice incubation state and isolated as single oocytes using collagenase II (2 mg/mL) in OR2 buffer (82.5 mM NaCl, 2 mM KCl, 1 mM MgCl2, 5 mM HEPES, pH 7.4). […]
The voltage relationship experiment for confirming the relationship between induce-inward current and voltage, the voltage was varied from −80 mV to +60 mV using a ramp protocol. […] All recording data were analyzed using Clampfit 9.0 (Molecular Devices, San Jose, CA, USA). […]
All presented experiments were performed at least three times for scientific verification. […] Induced-inward current data were analyzed with SigmaPlot 10.0 software (Systat Software, Inc., San Jose, CA, USA). […]

[3] = target: T3, human 5-HT3A receptor (wild type) (Homo sapiens, UniProt P46098); assay: Two-electrode voltage clamp, inhibition of serotonin-induced inward current (I5-HT) in Xenopus oocytes expressing wild-type receptor
T3 construct: expressed in transfected cells; host or cells: Xenopus oocytes injected with in vitro transcribed mRNA
T3 sequence (P46098 24-478): T1 sequence (P46098 24-478 W85A) with A62W
Method: as §1, §2
The voltage relationship experiment for confirming the relationship between induce-inward current and voltage, the voltage was varied from −80 mV to +60 mV using a ramp protocol. Each microelectrode was filled with 3 M KCl having a resistance of 0.2 MΩ. Serotonin and KAE applied in the experiment were diluted in ND96 bath solution (96 mM NaCl, 2 mM KCl, 1 mM MgCl2, 1.8 mM CaCl2, and 5 mM HEPES, pH 7.5) to specified concentration. The rate of application of the reagent was 2 mL per minute. All recording data were analyzed using Clampfit 9.0 (Molecular Devices, San Jose, CA, USA).
All presented experiments were performed at least three times for scientific verification. Data are presented as mean ± S.E.M (standard error of the mean). Induced-inward current data were analyzed with SigmaPlot 10.0 software (Systat Software, Inc., San Jose, CA, USA). To prepare a sigmoid prediction curve for induced peak data, Hill equation reflecting the binding to ligand and macromolecule was obtained with an OriginPro 9.0 software (Origin, MA, USA). The formula used was y = Vmin + (Vmax − Vmin) × [x]^n/([IC50]^n + [x]^n), where Vmin was the minimum current, Vmax was the maximum current, IC50 was the maximum half inhibitory effect percentage of inhibitory activation by KAE, [x] was the concentration of serotonin or KAE, and n was the interaction-coefficient. Statistical significance was considered when p-value was less than or equal to 0.05 (p ≤ 0.05).

[4] = read-out: Emax of serotonin concentration-response

O=c1c(O)c(-c2ccc(O)cc2)oc2cc(O)cc(O)c12 [KAE, kaempferol]
IC50 [1]: 33.7 ± 5.7 µM | Vmax [1]: 76.3 ± 10.7% | n (Hill coefficient) [1]: 1.3 ± 0.5 | IC50 [2]: 34.9 ± 11.2 µM | n (Hill coefficient) [2]: 1.5 ± 0.4 | Maximum-inhibitory percentage (Imax) [3]: 79.3 ± 4.5% | Vmax [3]: 79.3 ± 4.6% | efficacy of antagonist against I5-HT(100uM) of 5-HT3A [3]: 79.3 ± 4.6% | Hill coefficient ([3]; Hill equation fit, Figure 1D, serotonin 100 μM, −80 mV): 0.9 ± 0.1 | competitive or non-competitive manner of inhibition ([3]; KAE fixed, serotonin 1–300 μM, Figure 2B): non-competitive manner | IC50 ([3]; Wild type, −80 mV, Table 1): 23.4 ± 8.3 µM | n (Hill coefficient) ([3]; Wild type, −80 mV, Table 1): 1.2 ± 0.3 | Emax at 10 µM [3, 4]: 79.3 ± 4.8% | Emax at 100 µM [3, 4]: 37.7 ± 1.2% | inhibitory manner (reversibility) ([3]; serotonin and KAE 100 μM, Figure 1B): reversible inhibitory manner | voltage dependence of inhibition ([3]; voltage ramp −80 to +60 mV, KAE 10 and 100 μM, serotonin 100 μM): voltage-independent manner
